Data from the supplement of paper PMC4862054.

Assays:
Conditions in all cases: incubation time: 72 h
BT-474 [1] = test: normalised response (% of control), CellTox Green; higher = less cell death (100 = DMSO, 0 = benzethonium chloride kill control)
Outline: (§1)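 Compound was dispensed into 384-well plates at 5 concentrations in 10-fold steps spanning a 10,000-fold range specific to that compound. Breast cancer cell lines were added as 20 µl suspension and left for 72 h before CellTox Green fluorescence (485/520 nm) and then CellTiter-Glo luminescence, read after 10 min at room temperature. Each reported value is the normalised signal at one concentration, with 0.1 % DMSO set at 100 and a positive kill control at 0 on each plate.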

BT-549 [2] = test: as above
Outline: as §1

CAL-120 [3] = test: as above
Outline: as §1

CAL-148 [4] = test: as above
Outline: as §1

CAL-51 [5] = test: as above
Outline: as §1

CAL-85-1 [6] = test: as above
Outline: as §1

DU-4475 [7] = test: as above
Outline: as §1

HCC1143 [8] = test: as above
Outline: as §1

HCC1599 [9] = test: as above
Outline: as §1

HCC1937 [10] = test: as above
Outline: as §1

HDQ-P1 [11] = test: as above
Outline: as §1

Hs578T [12] = test: as above
Outline: as §1

MCF-10A [13] = test: as above
Outline: as §1

MDA-MB-231 [14] = test: as above
Outline: as §1

MDA-MB-436 [15] = test: as above
Outline: as §1

MDA-MB-453 [16] = test: as above
Outline: as §1

MDA-MB-468 [17] = test: as above
Outline: as §1

MFM-223 [18] = test: as above
Outline: as §1

BT-474 [19] = test: normalised response (% of control), CellTiter-Glo; higher = more viable cells (100 = DMSO, 0 = benzethonium chloride kill control)
Outline: as §1

BT-549 [20] = test: as above
Outline: as §1

CAL-120 [21] = test: as above
Outline: as §1

CAL-148 [22] = test: as above
Outline: as §1

CAL-51 [23] = test: as above
Outline: as §1

CAL-85-1 [24] = test: as above
Outline: as §1

DU-4475 [25] = test: as above
Outline: as §1

HCC1143 [26] = test: as above
Outline: as §1

HCC1599 [27] = test: as above
Outline: as §1

HCC1937 [28] = test: as above
Outline: as §1

HDQ-P1 [29] = test: as above
Outline: as §1

Hs578T [30] = test: as above
Outline: as §1

MCF-10A [31] = test: as above
Outline: as §1

MDA-MB-231 [32] = test: as above
Outline: as §1

MDA-MB-436 [33] = test: as above
Outline: as §1

MDA-MB-453 [34] = test: as above
Outline: as §1

MDA-MB-468 [35] = test: as above
Outline: as §1

MFM-223 [36] = test: as above
Outline: as §1

SK-BR-3 = test: as above
Outline: as §1

Row | Structure (SMILES) | normalised response (BT-474 [1]) [%] | normalised response (BT-549 [2]) [%] | normalised response (CAL-120 [3]) [%] | normalised response (CAL-148 [4]) [%] | normalised response (CAL-51 [5]) [%] | normalised response (CAL-85-1 [6]) [%] | normalised response (DU-4475 [7]) [%] | normalised response (HCC1143 [8]) [%] | normalised response (HCC1599 [9]) [%] | normalised response (HCC1937 [10]) [%] | normalised response (HDQ-P1 [11]) [%] | normalised response (Hs578T [12]) [%] | normalised response (MCF-10A [13]) [%] | normalised response (MDA-MB-231 [14]) [%] | normalised response (MDA-MB-436 [15]) [%] | normalised response (MDA-MB-453 [16]) [%] | normalised response (MDA-MB-468 [17]) [%] | normalised response (MFM-223 [18]) [%] | normalised response (BT-474 [19]) [%] | normalised response (BT-549 [20]) [%] | normalised response (CAL-120 [21]) [%] | normalised response (CAL-148 [22]) [%] | normalised response (CAL-51 [23]) [%] | normalised response (CAL-85-1 [24]) [%] | normalised response (DU-4475 [25]) [%] | normalised response (HCC1143 [26]) [%] | normalised response (HCC1599 [27]) [%] | normalised response (HCC1937 [28]) [%] | normalised response (HDQ-P1 [29]) [%] | normalised response (Hs578T [30]) [%] | normalised response (MCF-10A [31]) [%] | normalised response (MDA-MB-231 [32]) [%] | normalised response (MDA-MB-436 [33]) [%] | normalised response (MDA-MB-453 [34]) [%] | normalised response (MDA-MB-468 [35]) [%] | normalised response (MFM-223 [36]) [%] | normalised response (SK-BR-3) [%]
1 | CC(C)n1cnc2c(NCCc3ccc(O)cc3)nc(-c3csc4ccccc34)nc21 [StemRegenin 1] (1000 nM) | 100 | -112 | 104 | 85.1 | 118 | 118 | 107 | 119 | 96 | 89.9 | 102 | 88.4 | 83.1 | 114 | 110 | 110 | 137 | 81.1 | 108 | 77.9 | 99.9 | 99.3 | 121 | 98.8 | 103 | 110 | 111 | 95.4 | 89.6 | 105 | 94 | 110 | 100 | 102 | 100 | 93.8 | 96.5
2 | CN(C)C(=N)NC(=N)N [Metformin] (10000 nM) | 95 | 76.2 | 88.3 | 97.9 | 66.7 | 98 | 89.4 | 72.2 | 82.2 | 66.8 | 101 | 83.7 | 103 | 90.4 | 55.5 | 80.9 | 79.5 | 99.2 | 91 | 98.4 | 106 | 98.3 | 75.2 | 102 | 79.5 | 93.6 | 108 | 99.5 | 97.2 | 98.9 | 87.7 | 93.5 | 101 | 80.3 | 92.7 | 92.4 | 77.8
3 | O=C(O)CNC(=O)c1c(O)c2ccccc2n(Cc2ccccc2)c1=O [IOX-2] (5000 nM) | 100 | 72.8 | 98.4 | 98.5 | 94.9 | 104 | 103 | 97.1 | 98.2 | 114 | 105 | 58.2 | 84.6 | 66.4 | 93.2 | 110 | 57.3 | – | 95.7 | 96.2 | 101 | 100 | 85.1 | 96.9 | 99.3 | 103 | 114 | 93.3 | 100 | 100 | 104 | 91.3 | 96.7 | 93.1 | 106 | 97.7 | 99.7
4 | CCN(CC)CCCC(C)Nc1ccnc2cc(Cl)ccc12 (configuration not stated) [Chloroquine] (10000 nM) | 35.4 | 93.2 | -30.1 | 35.5 | 91.5 | 93 | 96.2 | 110 | 86.2 | 91.5 | 81.6 | 94.3 | 95.2 | 50.4 | 59.4 | 62.1 | 119 | 67.7 | 72.1 | 73.3 | 50.6 | 60.2 | 51.7 | 57.7 | 80.1 | 89.6 | 65.3 | 65.7 | 86.2 | 97.4 | 74.2 | 73.9 | 77.3 | 28.8 | 57.4 | 62.9 | 35.2
5 | CCn1c(C(=O)N(C2CC2)C2CC2)cc2c3c(ncn3C)c(Nc3cc(C)n(C)n3)nc21 (1000 nM) | 98.8 | 94.2 | 96.2 | 87.1 | 98.2 | 102 | 103 | 106 | 89.3 | 120 | 96.2 | 93 | 117 | 102 | 98.2 | 104 | 95.6 | 98.5 | 92.7 | 98.2 | 96.4 | 96.6 | 70.1 | 99.5 | 97.2 | 103 | 124 | 101 | 98.8 | 95.8 | 99.9 | 92.5 | 105 | 92.7 | 85.4 | 95.2 | 101
6 | O=[N+]([O-])c1ccc2c(c1)S(=O)(=O)C=C2 [Stattic] (5000 nM) | 12.7 | -67.2 | 105 | 51.2 | -12.3 | -36.1 | 104 | 118 | 95.2 | 28.6 | 106 | -141 | – | 51.2 | 106 | 108 | -175 | 4.35 | 68.9 | 0.47 | 88.3 | 46.4 | 0.16 | 1.59 | 101 | 93.1 | 86.9 | 22.3 | 92.2 | 29.6 | 105 | 30.9 | 75.7 | 45 | 2.23 | 22.8 | 80.9
7 | CN(Cc1cnc2nc(N)nc(N)c2n1)c1ccc(C(=O)N[C@@H](CCC(=O)O)C(=O)O)cc1 [Methotrexate] (5000 nM) | 102 | 125 | 98.9 | 100 | 115 | 102 | 102 | 109 | 98.8 | 110 | 107 | 102 | 107 | 116 | 97.6 | 107 | 129 | 97.5 | 78.1 | 97.8 | 21.1 | 100 | 56.8 | 51.4 | 102 | 83.5 | 97.9 | 31.3 | 51.3 | 110 | 107 | 77.5 | 81.5 | 110 | 99.4 | 104 | 115
